{"source": "patent US6689392B2", "about": "“Methods and compositions for controlling plant pathogen” (Agricare Ltd., priority 2001, dated 2004)", "key": {"Pythium aphanidermatum": {"system": "Pythium aphanidermatum", "assay": "Pythium aphanidermatum mycelial growth in vitro", "format": "cell-based", "details": "recommended dosage of 0.07% of active ingredient; 24 hr, 25° C.; FIG. 6"}, "P. aphanidermatum": {"system": "P. aphanidermatum", "assay": "Pythium damping-off disease in cucumber seedlings", "format": "in vivo, Pythium aphanidermatum", "details": "drench at 0.07% of active ingredient, after 10 days, FIG. 7"}, "P. infestans [1]": {"system": "P. infestans", "format": "cell-based, Phytophthora infestans", "design": "unit not given beside the values"}, "P. infestans [2]": {"system": "P. infestans", "format": "in vivo, Phytophthora infestans", "design": "ED90: unit not given beside the values"}, "P. infestans [3]": {"system": "P. infestans", "format": "in vivo, Phytophthora infestans", "design": "unit not given beside the values", "details": "TOMATO; Table 2"}, "P. infestans [4]": {"system": "P. infestans", "format": "in vivo, Phytophthora infestans", "design": "unit not given beside the values", "details": "POTATO; Table 2"}}, "note": "Like-named read-outs stand apart in the source and are kept apart here."}
{"compound": "CCO[PH](=O)O", "note": "[Fosetyl-Al]", "values": [{"measurement": "inhibition of radial growth in vitro", "setting": "Pythium aphanidermatum", "result": 50, "unit": "%"}, {"measurement": "plants survived in Pythium-inoculated flats", "setting": "P. aphanidermatum", "result": "70-80%"}]}
{"compound": "OP(O)O", "note": "[H3PO3, Phosphorous Acid]", "values": [{"measurement": "ED90", "setting": "P. infestans [1]", "result": 45}, {"measurement": "Inhibition (% of control)", "setting": "P. infestans [2]; Tomato, 0.01% active ingredient, Table 4", "result": "13 % of control"}, {"measurement": "Inhibition (% of control)", "setting": "P. infestans [2]; Tomato, 0.02% active ingredient, Table 4", "result": "13 % of control"}, {"measurement": "Inhibition (% of control)", "setting": "P. infestans [2]; Tomato, 0.05% active ingredient, Table 4", "result": "19 % of control"}, {"measurement": "Inhibition (% of control)", "setting": "P. infestans [2]; Tomato, 0.1% active ingredient, Table 4", "result": "31 % of control"}, {"measurement": "ED90", "setting": "P. infestans [2]; in vivo", "result": 2.52}]}
{"compound": "Potassium Phosphite [K3PO3]", "values": [{"measurement": "ED90", "setting": "P. infestans [1]; tomato leaf discs, Table 1", "result": 130}, {"measurement": "ED90", "setting": "P. infestans [3]", "result": 1.10}, {"measurement": "ED90", "setting": "P. infestans [4]", "result": 0.52}, {"measurement": "Inhibition (% of control)", "setting": "P. infestans [2]; Tomato, 0.12% active ingredient, Table 3", "result": "50 % of control"}, {"measurement": "Inhibition (% of control)", "setting": "P. infestans [2]; Tomato, 0.25% active ingredient, Table 3", "result": "63 % of control"}, {"measurement": "Inhibition (% of control)", "setting": "P. infestans [2]; Tomato, 0.5% active ingredient, Table 3", "result": "86 % of control"}, {"measurement": "Inhibition (% of control)", "setting": "P. infestans [2]; Tomato, 1.0% active ingredient, Table 3", "result": "98 % of control"}, {"measurement": "ED90", "setting": "P. infestans [2]; Tomato, Table 3", "result": 0.55}]}
